Test: Storage of compositions with/without nitrogen-gassing and ascorbic acid, assay and impurities
Type: physicochemical
Details: phosphate buffer
Description: A possible beneficial effect of nitrogen-gassing during manufacturing and storage was assessed. Selected compositions were manufactured by dissolution of API via stirring for 24 h and stored after treatment with/without nitrogen at 25° C. or 6° C. for up to 28 days.
The manufactured batches consisted of phosphate buffer and vitamin E TPGS and were compared to compositions containing ascorbic acid 1%, additionally. API was used at 0.01 wt.-%, 0.02 wt.-% or 0.04 w.-%. The compositions were saturated with API, where 10 mg, 20 mg or 40 mg were dissolved in 100 g buffer containing 0.5 wt.-%, wt.-1% or 2 wt.-% vitamin E TPGS, respectively. The compositions were transferred into polystyrene bottles and stored at 25° C. or 6° C. A part of the compositions was treated with nitrogen during manufacturing and gassed with nitrogen prior to sealing (see FIG. 18). The compositions were tested for assay and purity of API after manufacturing, as well as after 7, 14 and 28 days.

[1] = vitamin E TPGS 0.5%, Asc. 1%, N2 +, API 0.01%, 6° C., t = 7 d
[2] = vitamin E TPGS 0.5%, Asc. 1%, N2 +, API 0.01%, 6° C., t = 14 d
[3] = vitamin E TPGS 0.5%, Asc. 1%, N2 +, API 0.01%, 6° C., t = 28 d
[4] = vitamin E TPGS 0.5%, Asc. 1%, N2 +, API 0.01%, 25° C., t = 7 d
[5] = vitamin E TPGS 0.5%, Asc. 1%, N2 +, API 0.01%, 25° C., t = 14 d
[6] = vitamin E TPGS 0.5%, Asc. 1%, N2 +, API 0.01%, 25° C., t = 28 d
[7] = vitamin E TPGS 0.5%, Asc. 1%, N2 +, API 0.01%, t = 0
[8] = vitamin E TPGS 0.5%, Asc. 1%, N2 −, API 0.01%, 6° C., t = 7 d
[9] = vitamin E TPGS 0.5%, Asc. 1%, N2 −, API 0.01%, 6° C., t = 14 d
[10] = vitamin E TPGS 0.5%, Asc. 1%, N2 −, API 0.01%, 6° C., t = 28 d
[11] = vitamin E TPGS 0.5%, Asc. 1%, N2 −, API 0.01%, 25° C., t = 7 d
[12] = vitamin E TPGS 0.5%, Asc. 1%, N2 −, API 0.01%, 25° C., t = 14 d
[13] = vitamin E TPGS 0.5%, Asc. 1%, N2 −, API 0.01%, 25° C., t = 28 d
[14] = vitamin E TPGS 0.5%, Asc. 1%, N2 −, API 0.01%, t = 0
[15] = vitamin E TPGS 0.5%, no Asc., N2 +, API 0.01%, 6° C., t = 28 d
[16] = vitamin E TPGS 0.5%, no Asc., N2 +, API 0.01%, 25° C., t = 7 d
[17] = vitamin E TPGS 0.5%, no Asc., N2 +, API 0.01%, 25° C., t = 14 d
[18] = vitamin E TPGS 0.5%, no Asc., N2 +, API 0.01%, t = 0
[19] = vitamin E TPGS 0.5%, no Asc., N2 −, API 0.01%, 6° C., t = 7 d
[20] = vitamin E TPGS 0.5%, no Asc., N2 −, API 0.01%, 6° C., t = 14 d
[21] = vitamin E TPGS 0.5%, no Asc., N2 −, API 0.01%, 6° C., t = 28 d
[22] = vitamin E TPGS 0.5%, no Asc., N2 −, API 0.01%, 25° C., t = 7 d
[23] = vitamin E TPGS 0.5%, no Asc., N2 −, API 0.01%, 25° C., t = 14 d
[24] = vitamin E TPGS 0.5%, no Asc., N2 −, API 0.01%, 25° C., t = 28 d
[25] = vitamin E TPGS 0.5%, no Asc., N2 −, API 0.01%, t = 0
[26] = vitamin E TPGS 1%, Asc. 1%, N2 +, API 0.02%, 6° C., t = 7 d
[27] = vitamin E TPGS 1%, Asc. 1%, N2 +, API 0.02%, 6° C., t = 14 d
[28] = vitamin E TPGS 1%, Asc. 1%, N2 +, API 0.02%, 6° C., t = 28 d
[29] = vitamin E TPGS 1%, Asc. 1%, N2 +, API 0.02%, 25° C., t = 7 d
[30] = vitamin E TPGS 1%, Asc. 1%, N2 +, API 0.02%, 25° C., t = 14 d
[31] = vitamin E TPGS 1%, Asc. 1%, N2 +, API 0.02%, 25° C., t = 28 d
[32] = vitamin E TPGS 1%, Asc. 1%, N2 +, API 0.02%, t = 0
[33] = vitamin E TPGS 1%, no Asc., N2 +, API 0.02%, 6° C., t = 7 d
[34] = vitamin E TPGS 1%, no Asc., N2 +, API 0.02%, 6° C., t = 14 d
[35] = vitamin E TPGS 1%, no Asc., N2 +, API 0.02%, 6° C., t = 28 d
[36] = vitamin E TPGS 1%, no Asc., N2 +, API 0.02%, 25° C., t = 7 d
[37] = vitamin E TPGS 1%, no Asc., N2 +, API 0.02%, 25° C., t = 14 d

Compound: CN(C)[C@]1(c2cccc(F)c2)CC[C@]2(CC1)c1[nH]c3ccccc3c1CCN2C(=O)/C=C/c1ccccc1 [API, cis-(E)-4-(3-fluorophenyl)-2′,3′,4′,9′-tetrahydro-N,N-dimethyl-2′-(1-oxo-3-phenyl-2-propenyl)-spiro[cyclohexane-1,1′[1H]-pyrido[3,4-b]indol]-4-amine]
- Assay [1]: 65.65 µg/mL
- Impurities [1]: 0.65 % (a/a)
- Assay [2]: 65.65 µg/mL
- Impurities [2]: 29.21 % (a/a)
- Assay [3]: 65.82 µg/mL
- Impurities [3]: 0.70 % (a/a)
- Assay [4]: 63.63 µg/mL
- Impurities [4]: 1.00 % (a/a)
- Assay [5]: 61.53 µg/mL
- Impurities [5]: 1.74 % (a/a)
- Assay [6]: 63.95 µg/mL
- Impurities [6]: 1.82 % (a/a)
- Assay [7]: 66.61 µg/mL
- Impurities [7]: 0.58 % (a/a)
- Assay [8]: 66.21 µg/mL
- Impurities [8]: 0.70 % (a/a)
- Assay [9]: 66.54 µg/mL
- Impurities [9]: 0.83 % (a/a)
- Assay [10]: 66.15 µg/mL
- Impurities [10]: 0.70 % (a/a)
- Assay [11]: 65.66 µg/mL
- Impurities [11]: 0.53 % (a/a)
- Assay [12]: 65.27 µg/mL
- Impurities [12]: 1.09 % (a/a)
- Assay [13]: 61.46 µg/mL
- Impurities [13]: 1.36 % (a/a)
- Assay [14]: 66.81 µg/mL
- Impurities [14]: 0.66 % (a/a)
- Assay [15]: 49.80 µg/mL
- Impurities [15]: 0.54 % (a/a)
- Assay [16]: 49.76 µg/mL
- Impurities [16]: 0.36 % (a/a)
- Assay [17]: 49.65 µg/mL
- Impurities [17]: 1.19 % (a/a)
- Assay [18]: 49.49 µg/mL
- Impurities [18]: 0.71 % (a/a)
- Assay [19]: 50.43 µg/mL
- Impurities [19]: 0.63 % (a/a)
- Assay [20]: 50.71 µg/mL
- Impurities [20]: 0.94 % (a/a)
- Assay [21]: 50.27 µg/mL
- Impurities [21]: 0.52 % (a/a)
- Assay [22]: 50.56 µg/mL
- Impurities [22]: 0.45 % (a/a)
- Assay [23]: 50.23 µg/mL
- Impurities [23]: 1.13 % (a/a)
- Assay [24]: 50.36 µg/mL
- Impurities [24]: 1.06 % (a/a)
- Assay [25]: 50.22 µg/mL
- Impurities [25]: 0.68 % (a/a)
- Assay [26]: 109.93 µg/mL
- Impurities [26]: 0.73 % (a/a)
- Assay [27]: 110.67 µg/mL
- Impurities [27]: 0.90 % (a/a)
- Assay [28]: 110.25 µg/mL
- Impurities [28]: 0.91 % (a/a)
- Assay [29]: 107.03 µg/mL
- Impurities [29]: 1.04 % (a/a)
- Assay [30]: 106.77 µg/mL
- Impurities [30]: 1.27 % (a/a)
- Assay [31]: 93.34 µg/mL
- Impurities [31]: 1.79 % (a/a)
- Assay [32]: 110.99 µg/mL
- Impurities [32]: 0.62 % (a/a)
- Assay [33]: 93.47 µg/mL
- Impurities [33]: 0.64 % (a/a)
- Assay [34]: 93.72 µg/mL
- Impurities [34]: 0.75 % (a/a)
- Assay [35]: 93.93 µg/mL
- Impurities [35]: 0.58 % (a/a)
- Assay [36]: 93.61 µg/mL
- Impurities [36]: 0.69 % (a/a)
- Assay [37]: 93.28 µg/mL
- Impurities [37]: 0.86 % (a/a)

Source: patent publication US20180243273A1, “Composition for Intravesical Administration for Treating Bladder Pain” (priority 2017, published 2018)
